This assay concerns Trichomonas vaginalis. Description: Antitrichomonal activity against Trichomonas vaginalis after 48 hrs by invert microscope analysis. It counts as functional.

Converted amounts (≈) assume the structure as drawn. Bounds are passed on as bounds.

By MIC is commonly meant the smallest concentration in the dilution series that meets the test's criterion for growth inhibition. Read a low MIC as inhibition by little substance.

On to `CN(C)c1ccc(/C=C2\C[C@@]3(O)[C@H]4Cc5ccc(O)c6c5[C@@]3(CCN4CC3CC3)[C@@H](O6)C2=O)cc1`, for which the lowest concentration to inhibit growth (MIC) was 20 µM (≈ 9.45 µg/mL).

Compound `Oc1ccc2c3c1O[C@H]1c4[nH]c5ccccc5c4C[C@@]4(O)[C@@H](C2)N(CC2CC2)CC[C@]314` [NALTRINDOLE] gave an MIC of 80 µM (≈ 33.2 µg/mL).

For `COc1ccc(/C=C2\C[C@@]3(O)[C@H]4Cc5ccc(O)c6c5[C@@]3(CCN4CC3CC3)[C@@H](O6)C2=O)cc1`, the MIC came to 20 µM (≈ 9.19 µg/mL).

`O=C1/C(=C/c2ccc(F)cc2)C[C@@]2(O)[C@H]3Cc4ccc(O)c5c4[C@@]2(CCN3CC2CC2)[C@H]1O5` yielded an MIC of 40 µM (≈ 17.9 µg/mL).

In turn, `Cc1ncc([N+](=O)[O-])n1CCO` [METRONIDAZOLE] displayed an MIC of 5 µM (≈ 0.856 µg/mL).

Consider `C=CCN1C[C@H](C)N([C@H](c2ccc(C(=O)N(CC)CC)cc2)c2cccc(OC)c2)C[C@H]1C` [SNC-80], for which the MIC is greater than 320 µM.

On to `CC(C)[C@H](NC(=O)[C@H](CCC(=O)O)NC(=O)[C@H](Cc1ccccc1)NC(=O)[C@@H](C)NC(=O)[C@@H](N)Cc1ccc(O)cc1)C(=O)N[C@H](C(=O)NCC(N)=O)C(C)C` [DELTORPHIN II], for which the MIC is greater than 320 µM.

The compound `O=C1/C(=C/c2ccccc2)C[C@@]2(O)[C@H]3Cc4ccc(O)c5c4[C@@]2(CCN3CC2CC2)[C@H]1O5` [BNTX] yielded an MIC of 40 µM (≈ 17.2 µg/mL).

The compound `CC1(C)SSC(C)(C)[C@@H](NC(=O)[C@@H](N)Cc2ccc(O)cc2)C(=O)NCC(=O)N[C@@H](Cc2ccccc2)C(=O)N[C@H]1C(=O)O` had an MIC greater than 320 µM.

Source of the values: ChEMBL document CHEMBL3632589, “Investigation of 7-benzylidenenaltrexone derivatives as a novel structural antitrichomonal lead compound” (2015).
